Laboratory results from publication PMC9090388, “Design, synthesis, biological evaluation and QSAR analysis of novel N-substituted benzimidazole derived carboxamides” (Journal of Enzyme Inhibition and Medicinal Chemistry, 2022).
Where “and” joins values, the source holds several entries; their conditions need not be identical. Equal entries are not always repeated.

What was measured:
[1] = tested on: Nrf2; experiment: Western blot analysis of Nrf2 in cytoplasmic and nuclear fraction; type: cell-based, human; conditions: HCT116 cells, 1 h; 34 at 50 µM, 40 at 5 µM, hydrogen peroxide 4 mM
Procedure: Cell line HCT116 was seeded in 60 mm cell culture dishes (TPP, Switzerland) in a concentration of 9 × 10^5 cells/dish. Next day, the cells were treated with 4 mM hydrogen peroxide as a positive control for ROS induction and with compounds 34 and 40 (50 µM and 5 µM, respectively) for 1 h. Nuclear extracts from the cells were prepared using nuclear extraction buffer kit (Abcam, Cambridge, UK, ab113474) according to the manufacturer instructions. BCA assay (Sigma Aldrich, Taufkirchen, Germany) was performed for the determination of the protein concentration in nuclear and cytoplasm fractions. Denaturation of 1 μg of total proteins in Laemmli SDS loading buffer was performed at 95 °C for 5 min. After loading, 10% SDS poly-acrylamide gel electrophoresis was carried out and then proteins were transferred to nitrocellulose membranes. Afterwards, the membranes were blocked in blocking buffer (ImmobilonBlock – CH (Chemiluminescent Blocker), MerckKGaA, Darmstadt, Germany) and incubated 5 h at room temperature with primary antibody dissolved in ImmobilonBlock – CH (Chemiluminescent Blocker). After the membranes were washed three times for five minutes each with Tris-buffered saline with 0.5% Tween 20 (TBST), they were incubated in the corresponding secondary antibody for 1 h at room temperature or overnight at 4 °C. After washing with TBST, the membranes were processed for enhanced chemiluminescence (ECL) Clarity Max Western ECL Substrate (Bio-Rad Laboratories, Hercules, CA, USA) and captured using Odyssey Fc (LICOR, Bad Homburg, Germany). The primary antibody used was anti-Nrf2, (dilution 1:500, Anti-Nrf2 antibody: ab133347, Abcam), Histon H3 (dilution 1:2000, Anti-H3 antibody: Ab1791, Abcam), β-actin (dilution 1:500, sc-47778, Santa Cruz Biotechnology) and corresponding secondary HRP-conjugated IgG antibody (dilution 1:2000, mouse IgGκ, Santa Cruz Biotechnology).
Figure 5. Nrf2 protein levels in the cytoplasmic and the nuclear fraction of HCT116 cells, assessed by Western blot analysis. […]

[2] = tested on: HCT116 (colon carcinoma); experiment: Antiproliferative activity in vitro, MTT, 72 h; type: cell-based; conditions: Homo sapiens, HCT-116, 72 h, concentration that causes 50% growth inhibition
Procedure: (§1) The experiments were performed on four human cell lines, including HCT 116 (colon carcinoma), H 460 (lung carcinoma), MCF-7 (breast carcinoma) and HEK 293 (human embryonic kidney cells), in line with previously published experimental procedures[10]^,[25]. Briefly, the cells were grown in DMEM medium with the addition of 10% foetal bovine serum (FBS), 2 mM L-glutamine, 100 U/mL penicillin and 100 µg/mL streptomycin, and cultured as monolayers at 37 °C in a humidified atmosphere with 5% CO2. Cells were seeded at 2 × 10^3 cells/well in a standard 96-well microtiter plates and left to attach for 24 h. Next day, a test compound was added in five serial 10-fold dilutions. The rate of cell growth was evaluated after 72 h of incubation with MTT reagent. The obtained results are expressed as IC50 values, calculated from the concentration-response curves using linear regression analysis by fitting the test concentrations that give PG values above and below the reference value (i.e. 50%). Each test was performed in quadruplicate in at least two individual experiments.

[3] = tested on: MCF-7 (breast carcinoma); experiment: Antiproliferative activity in vitro, MTT, 72 h; type: cell-based; conditions: Homo sapiens, MCF7, concentration that causes 50% growth inhibition
Procedure: as §1

[4] = tested on: HEK 293 (human embryonic kidney cells); experiment: Antiproliferative/cytotoxic activity in vitro on non-tumour cells, MTT, 72 h; type: cell-based; conditions: for IC50: Homo sapiens, HEK293, non-tumour cell line, concentration that causes 50% growth inhibition, 72 h, MTT
Procedure: as §1

[5] = DPPH free radical scavenging (reducing activity of the stable radical DPPH); type: biochemical; conditions: DPPH 50 µM in absolute ethanol; – = did not show any DPPH activity
Procedure: The reducing activity of investigated systems was achieved by the DPPH method according to previously described procedures with modifications to assure the use in a 96-well microplate. Briefly, equal volumes of various concentrations of tested molecules (dissolved in DMSO) were added to the solution of DPPH (final concentration 50 µM in absolute ethanol). Ethanol and DMSO were used as control solutions in line with earlier reports.[27]

[6] = Ferric reducing/antioxidant power (FRAP assay); type: biochemical; conditions: triplicate; – = not active in the FRAP assay
Procedure: The FRAP method was carried out according to previously described procedures with some modifications to be compatible with an assay on a 96-well microplate. All results were expressed as Fe^2+ equivalents (Fe^2+ µmol).

[7] = tested on: H 460 (lung carcinoma); experiment: Antiproliferative activity in vitro, MTT, 72 h; type: cell-based, human; conditions: Homo sapiens, NCI-H460, 72 h, concentration that causes 50% growth inhibition; 72 h, MTT
Procedure: as §1

| SMILES | translocation of Nrf2 to the nucleus (nuclear expression of Nrf2) [1] | IC50 [2] | IC50 [3] | cytotoxicity towards non-tumour cell line compared with tumour cells ([4]; HEK 293 versus tumour cancer cells) | IC50 [4] | IC50 [5] | FRAP [6] | IC50 [7] |
| --- | --- | --- | --- | --- | --- | --- | --- | --- |
| OO [hydrogen peroxide, reference compound] | significantly higher in the nucleus | – | – | – | – | – | – | – |
| CC(C)Cn1c(NC(=O)c2ccccc2)nc2ccc(C#N)cc21 [Compound 40, N-(6-Cyano-1-isobutyl-1H-benzo[d]imidazol-2-yl)benzamide] | did not promote the translocation of Nrf2 to the nucleus | ~0.6 µM | 2.2 ± 1.9 µM | significantly less cytotoxic towards non-tumour cell line HEK 293 | 9.1 ± 1 µM | 11.5 ± 1.5 mM | 203.50 ± 10.53 mmolFe^2+/mmolC | – |
| COc1ccc(C(=O)Nc2nc3ccc(C#N)cc3n2C)c(OC)c1 [Compound 34, N-(6-Cyano-1-methyl-1H-benzo[d]imidazol-2-yl)-2,4-dimethoxybenzamide] | did not promote the translocation of Nrf2 to the nucleus | 47.6 ± 30 µM | 46.9 ± 35.4 µM | – | 93.3 ± 2.3 µM | ~5.68 mM and 5.68 mM | 618.10 mmolFe^2+/mmolC and 618.10 ± 66.10 mmolFe^2+/mmolC | 21.9 ± 2.9 µM |
